{
  "source": "ChEMBL document CHEMBL2151020",
  "about": "“JBIR-129 and -139, cytotoxic 34-membered polyol macrolides of microbial origin” (J Nat Prod, 2012)",
  "data": [
    {"test_system": "SK-OV-3", "test": "Cytotoxicity against human SKOV3 cells after 72 hrs by WST8 assay", "type": "functional, cell-based", "details": "SK-OV-3, 72 h", "units": {"IC50": "nM"}, "values": [
      {"compound": "CCC(O[C@H]1CC[C@H](O[C@H]2CC[C@H](O)[C@@H](C)O2)[C@@H](C)O1)C(C)C(O)C(C)C(O)C(C)C1C/C=C/C=C/C(O)CC(O)C(C)C(O)CC(O)C(C)C2CC(O)C(O)C(O)(CC(O[C@@H]3O[C@H](C)[C@@H](O)[C@H](O[C@H]4C[C@@H](O)[C@H](O)[C@@H](C)O4)[C@H]3O[C@@H]3O[C@H](C)[C@@H](O)[C@H](O)[C@H]3O)C(C)CCC(O)CC(O)C/C=C/C=C/C(=O)O1)O2", "note": "(stereo partly drawn)", "IC50": 300},
      {"compound": "CCC(O[C@H]1CC[C@H](O[C@H]2CC[C@H](O)[C@@H](C)O2)[C@@H](C)O1)C(C)C(O)C(C)C(O)C(C)C1C/C=C/C=C/C(O)CC(O)C(C)C(O)CC(O[C@@H]2O[C@H](CO)[C@H](O)[C@H](O)[C@H]2NC(C)=O)C(C)C2CC(O)C(O)C(O)(CC(O[C@@H]3O[C@H](C)[C@@H](O)[C@H](O[C@H]4C[C@@H](O)[C@H](O)[C@@H](C)O4)[C@H]3O[C@@H]3O[C@H](C)[C@@H](O)[C@H](O)[C@H]3O)C(C)CCC(O)CC(O)C/C=C/C=C/C(=O)O1)O2", "note": "(stereo partly drawn)", "IC50": 400},
      {"compound": "COc1cccc2c1C(=O)c1c(O)c3c(c(O)c1C2=O)C[C@@](O)(C(=O)CO)C[C@@H]3O[C@H]1C[C@H](N)[C@H](O)[C@H](C)O1", "note": "[DOXORUBICIN]", "IC50": 30}
    ]}
  ]
}
